Key:
Assay type in all cases: in vivo
Polygonum convolvulus = experiment: Post-emergence herbicidal action against POLCO; conditions: 80 g/ha, visual assessment about 3 weeks after treatment
In short: (§1)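 Spray, one-leaf stage: WP or EC compound in water, 600–800 l/ha, 0.2% wetting agent. Plants held about 3 weeks in the greenhouse, then visually rated in percent of kill compared with untreated controls.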

Alopecurus myosuroides [1] = experiment: Post-emergence herbicidal action against ALOMY
In short: as §1

Avena fatua [2] = experiment: Post-emergence herbicidal action against AVEFA; conditions: visual assessment about 3 weeks after treatment
In short: as §1

Lolium rigidum [3] = experiment: Pre-emergence herbicidal action against LOLRI; conditions: 320 g/ha
In short: (§2)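 Pre-emergence soil-surface spray of formulated compound (WP or EC; 600 to 800 l/ha; 0.2% wetting agent) over seeds sown in sandy loam. After 3 weeks under greenhouse conditions, damage is estimated visually in percent against untreated plants.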

Viola tricolor [4] = experiment: Pre-emergence herbicidal action against VIOTR
In short: as §2

Echinochloa crus-galli [5] = experiment: Post-emergence herbicidal action against ECHCG; conditions: visual assessment about 3 weeks after treatment
In short: as §1

Pharbitis purpurea [6] = experiment: Post-emergence herbicidal action against PHBPU; conditions: visual assessment about 3 weeks after treatment
In short: as §1

Hordeum murinum [7] = experiment: Post-emergence herbicidal action against HORMU
In short: as §1

Hordeum murinum [8] = experiment: Pre-emergence herbicidal action against HORMU; conditions: visual score after 3 weeks vs untreated controls
In short: as §2

Echinochloa crus-galli [9] = experiment: Pre-emergence herbicidal action against ECHCG; conditions: visual score after 3 weeks vs untreated controls
In short: as §2

Stellaria media [10] = experiment: Post-emergence herbicidal action against STEME; conditions: visual assessment about 3 weeks after treatment
In short: as §1

Lolium rigidum [11] = experiment: Post-emergence herbicidal action against LOLRI; conditions: 80 g/ha
In short: as §1

Abutilon theophrasti [12] = experiment: Pre-emergence herbicidal action against ABUTH; conditions: visual score after 3 weeks vs untreated controls
In short: as §2

Abutilon theophrasti [13] = experiment: Post-emergence herbicidal action against ABUTH
In short: as §1

Cyperus esculentus [14] = experiment: Pre-emergence herbicidal action against CYPES; conditions: 320 g/ha; visual score after 3 weeks vs untreated controls
In short: as §2

Alopecurus myosuroides [15] = experiment: Pre-emergence herbicidal action against ALOMY; conditions: visual score after 3 weeks vs untreated controls
In short: as §2

Setaria viridis [16] = experiment: Pre-emergence herbicidal action against SETVI
In short: as §2

Cyperus esculentus [17] = experiment: Post-emergence herbicidal action against CYPES; conditions: 80 g/ha, visual assessment about 3 weeks after treatment
In short: as §1

Amaranthus retroflexus [18] = experiment: Pre-emergence herbicidal action against AMARE; conditions: visual score after 3 weeks vs untreated controls
In short: as §2

Veronica persica [19] = experiment: Post-emergence herbicidal action against VERPE; conditions: visual assessment about 3 weeks after treatment
In short: as §1

Matricaria inodora [20] = experiment: Pre-emergence herbicidal action against MATIN; conditions: visual score after 3 weeks vs untreated controls
In short: as §2

Veronica persica [21] = experiment: Pre-emergence herbicidal action against VERPE; conditions: 320 g/ha
In short: as §2

Avena fatua [22] = experiment: Pre-emergence herbicidal action against AVEFA; conditions: visual score after 3 weeks vs untreated controls
In short: as §2

Setaria viridis [23] = experiment: Post-emergence herbicidal action against SETVI; conditions: visual assessment about 3 weeks after treatment
In short: as §1

Viola tricolor [24] = experiment: Post-emergence herbicidal action against VIOTR
In short: as §1

Stellaria media [25] = experiment: Pre-emergence herbicidal action against STEME
In short: as §2

Matricaria inodora [26] = experiment: Post-emergence herbicidal action against MATIN; conditions: visual assessment about 3 weeks after treatment
In short: as §1

Pharbitis purpurea [27] = experiment: Pre-emergence herbicidal action against PHBPU; conditions: 320 g/ha; visual score after 3 weeks vs untreated controls
In short: as §2

Amaranthus retroflexus [28] = experiment: Post-emergence herbicidal action against AMARE; conditions: visual assessment about 3 weeks after treatment
In short: as §1

`CN(CC1CC1)C(=O)c1c(C(F)(F)F)ccc(C(=O)Nc2nnnn2C)c1Cl` [Example 1-126] was tested, and the “Post-emergence action against POLCO in %” value (Polygonum convolvulus) was 80%, the “Post-emergence action against ALOMY” value (Alopecurus myosuroides [1]; 5 g/ha) was 90% and the “Post-emergence action against ALOMY” value (Alopecurus myosuroides [1]; 20 g/ha) was 100%. The “Post-emergence action against ALOMY” value (Alopecurus myosuroides [1]; 80 g/ha) was 100%, the “Post-emergence action against AVEFA in %” value (Avena fatua [2]; 20 g/ha) was 100% and the “Post-emergence action against AVEFA in %” value (Avena fatua [2]; 80 g/ha) was 100%. The “Pre-emergence action against LOLRI” value (Lolium rigidum [3]) was 90%, the “Pre-emergence action against VIOTR” value (Viola tricolor [4]; 80 g/ha) was 100% and the “Pre-emergence action against VIOTR” value (Viola tricolor [4]; 320 g/ha) was 100%. For the same compound, the “Post-emergence action against ECHCG in %” value (Echinochloa crus-galli [5]; 5 g/ha) was 80%, the “Post-emergence action against ECHCG in %” value (Echinochloa crus-galli [5]; 20 g/ha) was 100% and the “Post-emergence action against ECHCG in %” value (Echinochloa crus-galli [5]; 80 g/ha) was 100%. The “Post-emergence action against PHBPU in %” value (Pharbitis purpurea [6]; 5 g/ha) was 90%, the “Post-emergence action against PHBPU in %” value (Pharbitis purpurea [6]; 20 g/ha) was 90% and the “Post-emergence action against PHBPU in %” value (Pharbitis purpurea [6]; 80 g/ha) was 100%. For the same compound, the “Post-emergence action against HORMU in %” value (Hordeum murinum [7]; 20 g/ha) was 100%, the “Post-emergence action against HORMU in %” value (Hordeum murinum [7]; 80 g/ha) was 100% and the “Pre-emergence action against HORMU” value (Hordeum murinum [8]; 80 g/ha) was 80%. The “Pre-emergence action against HORMU” value (Hordeum murinum [8]; 320 g/ha) was 100%, the “Pre-emergence action against ECHCG” value (Echinochloa crus-galli [9]; 80 g/ha) was 90% and the “Pre-emergence action against ECHCG” value (Echinochloa crus-galli [9]; 320 g/ha) was 100%. The “Post-emergence action against STEME in %” value (Stellaria media [10]; 5 g/ha) was 100%, the “Post-emergence action against STEME in %” value (Stellaria media [10]; 20 g/ha) was 100% and the “Post-emergence action against STEME in %” value (Stellaria media [10]; 80 g/ha) was 100%. For the same compound, the “Post-emergence action against LOLRI in %” value (Lolium rigidum [11]) was 90%, the “Pre-emergence action against ABUTH” value (Abutilon theophrasti [12]; 20 g/ha) was 100% and the “Pre-emergence action against ABUTH” value (Abutilon theophrasti [12]; 80 g/ha) was 100%. The “Pre-emergence action against ABUTH” value (Abutilon theophrasti [12]; Dosage column 320 g/ha (heading prints 3200 g/ha)) was 100%, the “Post-emergence action against ABUTH” value (Abutilon theophrasti [13]; 5 g/ha) was 100% and the “Post-emergence action against ABUTH” value (Abutilon theophrasti [13]; 20 g/ha) was 100%. For the same compound, the “Post-emergence action against ABUTH” value (Abutilon theophrasti [13]; 80 g/ha) was 100%, the “Pre-emergence action against CYPES” value (Cyperus esculentus [14]) was 90% and the “Pre-emergence action against ALOMY” value (Alopecurus myosuroides [15]; 80 g/ha) was 80%. The “Pre-emergence action against ALOMY” value (Alopecurus myosuroides [15]; 320 g/ha) was 90%, the “Pre-emergence action against SETVI” value (Setaria viridis [16]; 80 g/ha) was 90% and the “Pre-emergence action against SETVI” value (Setaria viridis [16]; 320 g/ha) was 100%. The “Post-emergence action against CYPES in %” value (Cyperus esculentus [17]) was 80%, the “Pre-emergence action against AMARE” value (Amaranthus retroflexus [18]; 20 g/ha) was 80% and the “Pre-emergence action against AMARE” value (Amaranthus retroflexus [18]; 80 g/ha) was 90%. For the same compound, the “Pre-emergence action against AMARE” value (Amaranthus retroflexus [18]; 320 g/ha) was 100%, the “Post-emergence action against VERPE in %” value (Veronica persica [19]; 20 g/ha) was 80% and the “Post-emergence action against VERPE in %” value (Veronica persica [19]; 80 g/ha) was 80%. For the same compound, the “Pre-emergence action against MATIN” value (Matricaria inodora [20]; 20 g/ha) was 80%, the “Pre-emergence action against MATIN” value (Matricaria inodora [20]; 80 g/ha) was 100% and the “Pre-emergence action against MATIN” value (Matricaria inodora [20]; 320 g/ha) was 100%. The “Pre-emergence action against VERPE” value (Veronica persica [21]) was 90%, the “Pre-emergence action against AVEFA” value (Avena fatua [22]; 80 g/ha) was 80% and the “Pre-emergence action against AVEFA” value (Avena fatua [22]; 320 g/ha) was 100%. For the same compound, the “Post-emergence action against SETVI in %” value (Setaria viridis [23]; 5 g/ha) was 100%, the “Post-emergence action against SETVI in %” value (Setaria viridis [23]; 20 g/ha) was 100% and the “Post-emergence action against SETVI in %” value (Setaria viridis [23]; 80 g/ha) was 100%. The “Post-emergence action against VIOTR in %” value (Viola tricolor [24]; 5 g/ha) was 90%, the “Post-emergence action against VIOTR in %” value (Viola tricolor [24]; 20 g/ha) was 100% and the “Post-emergence action against VIOTR in %” value (Viola tricolor [24]; 80 g/ha) was 100%. The “Pre-emergence action against STEME” value (Stellaria media [25]; 20 g/ha) was 80%, the “Pre-emergence action against STEME” value (Stellaria media [25]; 320 g/ha) was 90% and the “Post-emergence action against MATIN in %” value (Matricaria inodora [26]; 5 g/ha) was 80%. The “Post-emergence action against MATIN in %” value (Matricaria inodora [26]; 20 g/ha) was 90%, the “Post-emergence action against MATIN in %” value (Matricaria inodora [26]; 80 g/ha) was 100% and the “Pre-emergence action against PHBPU” value (Pharbitis purpurea [27]) was 80%. For the same compound, the “Post-emergence action against AMARE in %” value (Amaranthus retroflexus [28]; 5 g/ha) was 100%, the “Post-emergence action against AMARE in %” value (Amaranthus retroflexus [28]; 20 g/ha) was 100% and the “Post-emergence action against AMARE in %” value (Amaranthus retroflexus [28]; 80 g/ha) was 100%.

— patent US12599136B2, “Substituted isophthalic acid diamides and their use as herbicides” (Bayer Aktiengesellschaft, priority 2020, dated 2026)
